Test results as given in patent publication US8614166B2, “Herbicidal composition for tolerant or resistant cotton crops” (Bayer Intellectual Property GmbH, priority 1998, dated 2013).
Structures can show the parent of a compound that is named as a salt.

Columns and labels:
Test in all cases: Field trial in tolerant cotton, herbicidal action against weed
Type in all cases: in vivo
Ipomoea hederacea = details: application in the 4-leaf stage, scoring 23 days after application
Procedure: (§1) Transgenic cotton plants with a resistance to one or more herbicides (A) together with typical weed plants were grown in the open on 2×5 m plots under natural field conditions; alternatively, weed infestation occurred naturally when the cotton plants were grown.
(§2) […] The damage to, and the development of, all aerial parts of the plants was recorded. Scoring was done on the basis of a percentage sale (100% action=all plants destroyed; 50% action=50% of the plants and green parts of the plants destroyed; 0% action=no recognizable effect=like control plot. The mean of the score values of in each case 4 plots was calculated.

Sorghum halepense = details: application in the 4-leaf stage, scoring 30 days after application
Procedure: as §1
(§3) 2, 4, 6 and 8 weeks after the application, the herbicidal activity of the active substances or active substance mixtures was scored visually with reference to the treated plots in comparison to untreated control plots. The damage to, and the development of, all aerial parts of the plants was recorded. Scoring was done on the basis of a percentage sale (100% action=all plants destroyed; 50% action=50% of the plants and green parts of the plants destroyed; 0% action=no recognizable effect=like control plot. The mean of the score values of in each case 4 plots was calculated.

Datura stramonium = details: application in the 4-5-leaf stage, scoring 3 weeks after application
Procedure: as §1, §2

Echinocloa colonum = details: application in the 4-5-leaf stage, scoring 3 weeks after application
Procedure: as §1, §2

Abutilon theophrasti = details: dose 300 g of a.s./ha; application in the 4-5 leaf stage; scoring 27 days after application
Procedure: as §1, §3

## COc1cc(OC)nc(Sc2cccc(Cl)c2C(=O)[O-])n1.[Na+] [(B2.4), sodium 2-chloro-6-(4,6-dimethoxypyrimidin-2-ylthio)benzoate]
Ipomoea hederacea; dose 105 g of a.s./ha
  Herbicidal action (%) against Ipomoea hederacea: 42%

## CCCC(=NOCC)C1=C(O)CC(C2CCCSC2)CC1=O (stereo not shown) [(B4.2), 2-(1-ethoxyiminobutyl)-3-hydroxy-5-thian-3-ylcyclohex-2-enone]
Sorghum halepense; dose 125 g of a.s./ha
  Herbicidal action (%) against Sorghum halepense: 58%

## N#Cc1cc(Br)c(O)c(Br)c1 [(B5.1), 3,5-dibromo-4-hydroxybenzonitrile]
Ipomoea hederacea; dose 560 g of a.s./ha
  Herbicidal action (%) against Ipomoea hederacea: 32%

## CCc1cccc(C)c1N(C(=O)CCl)C(C)COC (stereo not shown) [(B1.9), 2-chloro-N-(2-ethyl-6-methylphenyl)-N-(2-methoxy-1-methylethyl)acetamide]
Datura stramonium; dose 930 g of a.s./ha
  Herbicidal action (%) against Datura stramonium: 0%
Echinocloa colonum; dose 930 g of a.s./ha
  Herbicidal action (%) against Echinocloa colonum: 88%

## CCC(CC)Nc1c([N+](=O)[O-])cc(C)c(C)c1[N+](=O)[O-] [(B1.12), N-(1-ethylpropyl)-2,6-dinitro-3,4-xylidine]
Ipomoea hederacea; dose 925 g of a.s./ha
  Herbicidal action (%) against Ipomoea hederacea: 42%

## COCc1cnc(C2=NC(C)(C(C)C)C(=O)N2)c(C(=O)O)c1 (stereo not shown) [(A3.5), imazamox]
Ipomoea hederacea; dose 35 g of a.s./ha
  Herbicidal action (%) against Ipomoea hederacea: 42%

## CP(=O)(O)CCC(N)C(=O)O (stereo not shown) [(A1.2), glufosinate-monoammonium salt]
Abutilon theophrasti
  Herbicidal action (%) against Abutilon theophrasti: 30%
Sorghum halepense; dose 300 g of a.s./ha
  Herbicidal action (%) against Sorghum halepense: 15%
Sorghum halepense; dose 500 g of a.s./ha
  Herbicidal action (%) against Sorghum halepense: 53%
Datura stramonium; dose 450 g of a.s./ha
  Herbicidal action (%) against Datura stramonium: 75%
Datura stramonium; dose 600 g of a.s./ha
  Herbicidal action (%) against Datura stramonium: 90%
Datura stramonium; dose 1000 g of a.s./ha
  Herbicidal action (%) against Datura stramonium: 100%
Ipomoea hederacea; dose 400 g of a.s./ha
  Herbicidal action (%) against Ipomoea hederacea: 43%
Ipomoea hederacea; dose 600 g of a.s./ha
  Herbicidal action (%) against Ipomoea hederacea: 75%
Echinocloa colonum; dose 450 g of a.s./ha
  Herbicidal action (%) against Echinocloa colonum: 0%
Echinocloa colonum; dose 600 g of a.s./ha
  Herbicidal action (%) against Echinocloa colonum: 15%
Echinocloa colonum; dose 1000 g of a.s./ha
  Herbicidal action (%) against Echinocloa colonum: 30%

## CN(C)C(=O)Nc1cccc(C(F)(F)F)c1 [(B1.2), N,N-dimethyl-N′-[3-(trifluoromethyl)phenyl]urea]
Ipomoea hederacea; dose 1120 g of a.s./ha
  Herbicidal action (%) against Ipomoea hederacea: 37%
